Measurements from US12337009B2, “Nucleotide derivatives and methods of use thereof” (The Trustees of Columbia University in the City of New York, priority 2016, dated 2025).

How the values were obtained:
[1] = test system: Therminator IX DNA polymerase; test: Polymerase extension reaction with 3′-O-modified reversible terminators, MALDI-TOF MS readout; type: biochemical; settings: extension reactions incl. 1:1 mixtures of two terminators, MALDI-TOF MS (FIGS. 23A-28C)
Description: The reaction was conducted in an ABI GeneAmp PCR System 9700 with initial incubation at 65° C. for 30 second, followed by 38 cycles of 65° C./30 sec, 45° C./30 sec, 65° C./30 sec. Multiple reactions were carried out and an aliquot of the reaction mixture was desalted using a C18 ZipTip column (Millipore, MA) and analyzed by MALDI-TOF MS (ABI Voyager DE). Polymerase extension reaction using 3'-O-SS-Rox-dATP for 5, 10, and 30 cycles. […] The reactions were conducted in an ABI GeneAmp PCR System 9700 with initial incubation at 65° C. for 30 second, followed by 5, 10, or 30 cycles of 65° C./30 sec, 45° C./30 sec, 65° C./30 sec. The reaction mixtures were desalted using Oligo Clean & ConcentratorTM (ZYMO Research) and analyzed by MALDI-TOF MS (ABI Voyager DE) and the results are shown in FIGS. 23A-23B. DNA template: [NT] ID NO:6). […] The reaction mixtures were desalted using Oligo Clean & ConcentratorTM (ZYMO Research) and analyzed by MALDI-TOF MS (ABI Voyager DE) the result is shown in FIG. 24. […] The reaction mixtures were desalted using Oligo Clean & ConcentratorTM (ZYMO Research) and analyzed by MALDI-TOF MS (ABI Voyager DE) the result is shown in FIGS. 25A-25C. […] The reaction mixtures were desalted using Oligo Clean & ConcentratorTM (ZYMO Research) and analyzed by MALDI-TOF MS (ABI Voyager DE) the result is shown in FIGS. 28A-28C. […]

DNA polymerase = test system: DNA polymerase
Description: FIGS. 23A-23B. MALDI-TOF mass spectra of DNA extension products from polymerase reactions using 3′-O-Rox-SS-dATP for 5, 10, and 30 cycles.
FIGS. 25A-25C. MALDI-TOF mass spectrum of DNA extension products from polymerase reactions using a mixture of 3′-O-tButyl-SS-dATP and 3′-O-Rox-SS-dATP at a 1:1 ratio. […] FIG. 25B: 3′-O-tButyl-SS-dATP (M.W. 625). FIG. 25C: 3′-O-Rox-SS-dATP (M.W. 1157).
FIG. 26. MALDI-TOF mass spectrum of a DNA extension product from polymerase reaction using 3′-O-TCO-SS-dTTP.
FIGS. 27A-27B. MALDI-TOF mass spectrum of a DNA extension product from polymerase reaction using 3′-O-Biotin-dCTP.
FIGS. 28A-28C. MALDI-TOF mass spectrum of DNA extension products from polymerase reaction using with a mixture of 3′-O-Rox-SS-dATP and 3′-O-Rox-PEG4-SS-dATP at a 1:1 ratio.

CC(C)(C)SSCO[C@H]1C[C@H](n2cnc3c(N)ncnc32)O[C@@H]1COP(=O)(O)OP(=O)(O)OP(=O)(O)O [3′-O-tButyl-SS-dATP, 3′-O-t-Butyldithiomethyl(SS)-dATP]
incorporation efficiency relative to another nucleotide analogue [1]: much higher efficiency than 3′-O-Rox-SS-dATP | extension (DNA polymerase; after 5 cycles of extension): completed | efficiency of incorporation by polymerase versus 3′-O-Rox-SS-dATP (DNA polymerase; mixture at a 1:1 ratio): much higher efficiency | height of the extension product peak versus that with 3′-O-Rox-SS-dATP (DNA polymerase; mixture at a 1:1 ratio, after 5 cycles): more than twice
